# From publication PMC4757070, “Involvement of a Novel Class C Beta-Lactamase in the Transglutaminase Mediated Cross-Linking Cascade of Streptomyces mobaraensis DSM 40847” (PLoS ONE, 2016)
# Where two headings read alike, the source gives them in different places.
# How the values were obtained:
# [1] = molecular target: T1, beta-lactamase Sml-1 (rSml-1); test: inhibition of nitrocefin hydrolysis at […] nm; Ki from IC50 ([…]) by Cheng-Prusoff; type: biochemical, Streptomyces mobaraensis
# T1 construct: recombinant Sml-1 produced in E. coli BL21(DE3) RIL with pelB leader and C-terminal Gly-Leu-Glu-(His)6
# [2] = molecular target: T1, beta-lactamase Sml-1 (rSml-1); test: as above; type: biochemical
Ki [2] [µM],SMILES,Ki [1] [µM]
,CC1(C)S[C@@H]2[C@H](NC(=O)Cc3ccccc3)C(=O)N2[C@H]1C(=O)O [penicillin G],100
180,CC1(C)S[C@@H]2[C@H](NC(=O)[C@H](N)c3ccccc3)C(=O)N2[C@H]1C(=O)O [ampicillin],
